Experimental data from patent publication US20250376484A1, “PRMT5 INHIBITORS AND USES THEREOF” (Gilead Sciences, Inc., priority 2024, published 2025).

Columns and labels:
[1] = Cell viability assay (CellTitre-Glo), HCT116 WT; assay type: cell-based; details: human; HCT116 WT cells, 7 days of treatment, CTG luminescence
Experimental: (§1) Control compounds were analyzed in parallel each time for quality control.
(§2) In Brief, on Day-1, a serial dilution of stock compounds in DMSO was performed using BioMek liquid handlers and dispensed using Echo acoustic dispenser into 384 well plates. Both tool compounds and sample compounds were spotted in the same plate for a dose response of PRMT5 inhibitors. Compound plates were stored as frozen until the cells were ready for seeding.
(§3) On Day 0, 100 HCT WT or HCT116 MTAP-deleted cells were seeded in compound-containing 384 well plates (50 μl per well) in RPMI 1640 media supplemented with 10% heat inactivated fetal bovine serum, Glutamax and penicillin streptomycin using EL460 liquid dispenser 5 μl cassette (BioTek, part no. 7170011). After equilibrating the plate in room temperature, the cells were incubated for 7 days inside the sealed incubator set at 37° C. with […] and 5% CO2.
(§4) On Day 7, the viability of cells was measured using a CTG assay kit (CellTitre-Glo; Promega cat no. G7573). Shortly, 40 μl per well of luminescent cell viability assay reagent were dispensed using EL460 liquid dispenser 5 μl cassette. CTG luminescence signal was measured using an EnVision plate reader (PerkinElmer) in accordance with manufacturer's instruction. The CC50 values for each compound after 7 days of treatment were calculated using 4 parameter non-linear logistical curve fit.

[2] = biological target: T1, BCRP (Homo sapiens, UniProt Q9UNQ0); assay: MDR1/BCRP assay: efflux ratio in cPgp-KO-BCRP-KI cells; assay type: in vitro ADME; details: dog, efflux ratio Papp (B-to-A)/Papp (A-to-B), 2-hour time point, read-out: cPgp-KO-BCRP-KI (ER)
T1 construct: host or cells: MDCK cells with canine Pgp knocked out and BCRP knocked in (cPgp-KO-BCRP-KI)
T1 sequence (Q9UNQ0 1-655): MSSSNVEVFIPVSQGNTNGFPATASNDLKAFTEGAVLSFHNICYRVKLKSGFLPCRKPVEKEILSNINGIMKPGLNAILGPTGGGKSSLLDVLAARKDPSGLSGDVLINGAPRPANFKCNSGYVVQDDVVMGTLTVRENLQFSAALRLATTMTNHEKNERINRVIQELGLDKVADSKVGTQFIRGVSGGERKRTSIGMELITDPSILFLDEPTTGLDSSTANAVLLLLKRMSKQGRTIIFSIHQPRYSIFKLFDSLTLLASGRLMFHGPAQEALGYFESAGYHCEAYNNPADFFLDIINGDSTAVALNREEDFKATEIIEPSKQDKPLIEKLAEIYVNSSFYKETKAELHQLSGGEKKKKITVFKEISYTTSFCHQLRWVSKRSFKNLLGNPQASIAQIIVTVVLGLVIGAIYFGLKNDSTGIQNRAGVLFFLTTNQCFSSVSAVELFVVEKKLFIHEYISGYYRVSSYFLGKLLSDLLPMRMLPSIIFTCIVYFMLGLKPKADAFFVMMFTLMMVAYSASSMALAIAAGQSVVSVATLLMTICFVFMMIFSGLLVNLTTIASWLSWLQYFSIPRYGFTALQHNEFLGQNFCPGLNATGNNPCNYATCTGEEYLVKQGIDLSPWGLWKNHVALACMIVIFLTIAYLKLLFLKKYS
Experimental: (§5) cPgp-KO-MDCK-WT, cPgp-KO-MDR1-KI, and cPgp-KO—BCRP—KI cells (all from Sigma) were cultured in Dulbecco's Modification of Eagle's Medium (DMEM) with 4.5 g/L glucose, sodium pyruvate, and GlutaMAX (Gibco) supplemented with 1% Pen/Strep and 10% fetal bovine serum. The cells were maintained in an incubator at 37° C., 90% humidity, and 5% CO2 until reaching confluence over 5 days in 96-well transwell plates. Experiments were conducted using an HBSS donor buffer (Invitrogen) containing 10 mM HEPES and 15 mM glucose, adjusted to pH 7.4. The receiver well contained HBSS buffer supplemented with 1% BSA, 10 mM HEPES, and 15 mM glucose, and the pH was adjusted to 7.4. TEER values were measured to assess membrane integrity after an initial equilibration with BSA-free transport buffer for 15 minutes. The experiment was started by adding dosing solutions containing test compounds at 1 μM. Cells were dosed on the apical (A) side or basolateral (B) side at 100 μl and 200 μl, respectively, to determine forward (A to B) and reverse (B to A) permeability. At the 2-hour time point, 50 μl samples were collected from the receiver compartment. Each compound was tested in 2 separate replicate wells for each condition. All samples were immediately collected into plates, and 50 μL of acetonitrile was added. Subsequently, 350 μl of 30:70 methanol: acetonitrile containing internal standard was added to precipitate proteins and stabilize the test compounds. To test for non-specific binding and compound instability, the total amount of the drug was quantified at the end of the experiment and compared to the material present in the original dosing solution as a percentage of the recovery. All samples were analyzed by LC-MS/MS using electrospray ionization.
(§6) The apparent permeability, Papp, and % recovery were calculated as follows: […]

[3] = biological target: T2, MDR1 (Homo sapiens, UniProt P08183); assay: MDR1/BCRP assay: efflux ratio in cPgp-KO-MDR1-KI cells; assay type: in vitro ADME; details: dog, MDCK-MDR1, efflux ratio Papp (B-to-A)/Papp (A-to-B), 2-hour time point, read-out: cPgp-KO-MDR1-KI (ER)
T2 construct: host or cells: MDCK cells with canine Pgp knocked out and MDR1 knocked in (cPgp-KO-MDR1-KI)
T2 sequence (P08183 whole entry): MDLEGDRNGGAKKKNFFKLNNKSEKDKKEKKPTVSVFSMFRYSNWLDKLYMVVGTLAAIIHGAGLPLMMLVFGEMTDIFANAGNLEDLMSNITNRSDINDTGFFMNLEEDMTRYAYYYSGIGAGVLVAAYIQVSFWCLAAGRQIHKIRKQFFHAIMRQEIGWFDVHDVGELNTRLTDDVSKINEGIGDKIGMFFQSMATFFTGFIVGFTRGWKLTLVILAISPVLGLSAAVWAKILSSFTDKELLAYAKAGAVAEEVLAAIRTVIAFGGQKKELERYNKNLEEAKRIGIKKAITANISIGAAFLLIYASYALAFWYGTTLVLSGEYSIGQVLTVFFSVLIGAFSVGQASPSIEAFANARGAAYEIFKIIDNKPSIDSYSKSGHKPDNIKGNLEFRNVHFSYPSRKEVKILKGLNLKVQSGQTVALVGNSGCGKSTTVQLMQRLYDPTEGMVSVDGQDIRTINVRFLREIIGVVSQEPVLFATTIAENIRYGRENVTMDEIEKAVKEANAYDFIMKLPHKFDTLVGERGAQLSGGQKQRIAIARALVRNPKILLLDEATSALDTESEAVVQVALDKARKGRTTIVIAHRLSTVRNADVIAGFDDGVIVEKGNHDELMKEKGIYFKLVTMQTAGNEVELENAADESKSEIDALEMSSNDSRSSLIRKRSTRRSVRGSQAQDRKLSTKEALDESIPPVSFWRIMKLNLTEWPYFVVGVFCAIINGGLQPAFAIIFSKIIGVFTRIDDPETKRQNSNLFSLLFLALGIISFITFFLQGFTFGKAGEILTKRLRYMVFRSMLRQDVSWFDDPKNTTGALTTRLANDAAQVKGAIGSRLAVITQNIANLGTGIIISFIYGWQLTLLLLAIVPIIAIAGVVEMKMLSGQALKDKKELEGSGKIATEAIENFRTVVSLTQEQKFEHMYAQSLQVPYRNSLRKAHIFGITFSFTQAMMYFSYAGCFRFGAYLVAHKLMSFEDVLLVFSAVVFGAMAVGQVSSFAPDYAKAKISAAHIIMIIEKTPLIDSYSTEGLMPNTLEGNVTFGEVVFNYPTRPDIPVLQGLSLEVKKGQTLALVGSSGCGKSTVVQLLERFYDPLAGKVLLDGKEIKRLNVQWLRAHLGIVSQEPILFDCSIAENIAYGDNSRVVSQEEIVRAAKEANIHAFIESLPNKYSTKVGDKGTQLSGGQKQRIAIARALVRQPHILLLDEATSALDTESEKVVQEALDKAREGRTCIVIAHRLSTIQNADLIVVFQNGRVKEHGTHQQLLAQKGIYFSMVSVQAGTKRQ
Experimental: as §5, §6

[4] = MDR1/BCRP assay: permeability in cPgp-KO-MDCK-WT cells; assay type: in vitro ADME; details: dog, test compounds at 1 μM, 2-hour time point, pH 7.4
Experimental: as §5, §6

[5] = test system: HCT116 MTAP-deleted cell lines; assay: Cell viability assay (CellTitre-Glo), HCT116 MTAP-deleted; assay type: cell-based; details: for CC50: Homo sapiens, HCT-116, 168 h, HCT116 MTAP-deleted cells, 7 days of treatment, CTG luminescence, read-out: MTAP^del HCT116 CC50; for Selectivity: WT HCT116 CC50 versus MTAP^del HCT116 CC50
Experimental: as §1, §2, §3, §4

With `Cn1ncc2c(NC(=O)C(=O)N3CCC[C@@H]4Oc5cc(OC(F)(F)F)cc(F)c5[C@@H]43)cnc(N)c21` [Example Ca-6, N-(7-amino-1-methyl-1H-pyrazolo[3,4-c]pyridin-4-yl)-2-((4aS,9bS)-9-fluoro-7-(trifluoromethoxy)-3,4,4a,9b-tetrahydrobenzofuro[3,2-b]pyridin-1(2H)-yl)-2-oxoacetamide] as the compound, how does the CC50 at 7 days [1] read?
The CC50 at 7 days was 1880 nM.

And the efflux ratio at 2 h, 1 μM [2]?
The efflux ratio at 2 h, 1 μM was 2.6.

What about the efflux ratio at 2 h, 1 μM [3] of the same compound?
The efflux ratio at 2 h, 1 μM was 0.9.

And the Papp A→B at 2 h, 1 µM [4]?
The Papp A→B at 2 h, 1 µM was 9.3 ×10⁻⁶ cm/s.

And the CC50 [5]?
The CC50 was 13 nM.

What about the Selectivity [5] of the same compound?
The Selectivity was 144.

What does the source list for `Cn1ncc2c(NC(=O)C(=O)N3CC4(CC4)C[C@@H]4Oc5cc(C(F)(F)F)ccc5[C@@H]43)cnc(N)c21` [Example Ca-5, N-(7-amino-1-methyl-1H-pyrazolo[3,4-c]pyridin-4-yl)-2-oxo-2-((4aS,9bS)-7-(trifluoromethyl)-4a,9b-dihydro-2H-spiro[benzofuro[3,2-b]pyridine-3,1′-cyclopropan]-1(4H)-yl)acetamide]?
CC50 at 7 days [1]: 589 nM; efflux ratio at 2 h, 1 μM [2]: 0.44; efflux ratio at 2 h, 1 μM [3]: 0.99; Papp A→B at 2 h, 1 µM [4]: 11.6 ×10⁻⁶ cm/s; CC50 [5]: 8 nM; Selectivity [5]: 73

With `Cn1ncc2c(NC(=O)C(=O)N3CCC[C@@H]4Oc5cc(C(F)(F)F)cc(F)c5[C@@H]43)cnc(N)c21` [Example Ca-1, N-(7-amino-1-methyl-1H-pyrazolo[3,4-c]pyridin-4-yl)-2-((4aS,9bS)-9-fluoro-7-(trifluoromethyl)-3,4,4a,9b-tetrahydrobenzofuro[3,2-b]pyridin-1(2H)-yl)-2-oxoacetamide] as the compound, how does the CC50 at 7 days [1] read?
Its CC50 at 7 days is 1030 nM.

And the efflux ratio at 2 h, 1 μM [2]?
The efflux ratio at 2 h, 1 μM was 0.7.

What about the efflux ratio at 2 h, 1 μM [3] of the same compound?
The efflux ratio at 2 h, 1 μM was 1.

And the Papp A→B at 2 h, 1 µM [4]?
The Papp A→B at 2 h, 1 µM was 12 ×10⁻⁶ cm/s.

What about the CC50 [5] of the same compound?
The CC50 was 10 nM.

What about the Selectivity [5] of the same compound?
Its Selectivity is 103.
